Consider one molecule from US20240352426A1, “Accelerated Protocol for the Differentiation of Podocytes from Human Pluripotent Stem Cells” (Vanderbilt University, priority 2021, published 2024).

The assay has as its system iPSC-derived primitive streak cells. Description: Flow cytometry of differentiation markers after CHIR99021 treatment of primitive streak cells. The assay is classed as cell-based, human. As for the experimental part:
iPSCs seeded onto Geltrex-coated plates at a density of 100,000 cells/cm^2 were treated with mTesR media with 10 μM ROCKi for the first 24 h. On Day 0, cells were treated with base media (DMEM/F12 with GlutaMax, 1×B27) supplemented with primitive streak induction factors including 100 ng/ml Activin A and 3 μM CHIR99021. On Day 2, cells were treated with base media including 8 μM CHIR99021 to induce intermediate mesoderm until Day 5, followed by treatment with base medium containing 200 ng/ml FGF9 and 1 mg/ml Heparin (Sigma-Aldrich, St. Louis, Missouri). On Day 7, to induce the nephron progenitors, the cells were dissociated using Accutase and replated (1:4) onto laminin-511-coated plates. The podocyte phenotype was induced using base media supplemented with 100 ng/ml BMP7, 100 ng/ml Activin A, 50 ng/ml VEGF, 3 μM CHIR99021, and 0.1 μM RA and cells were assayed on Day 12. The detailed methods for deriving the podocytes was carefully described elsewhere (Bejoy J, et al. STAR protocols. 2021 2 (4): 100898).
To evaluate the expression of proteins of interest quantitatively, the cells were harvested by Accutase treatment and analyzed by flow cytometry. […] The cells were acquired with BD FACSCanto II flow cytometer (BD Biosciences, Beckton, New Jersey) and analyzed against isotype controls using FlowJo software. […]
(Flow cytometry measures light scatter and fluorescence of single cells or particles in a stream.)

Take `Cc1c[nH]c(-c2cnc(NCCNc3ccc(C#N)cn3)nc2-c2ccc(Cl)cc2Cl)n1` [CHIR99021]: where the note is “8 μM CHIR99021 for 2-3 days on primitive streak cells”, the “population of MIXL1+ cells (flow cytometry)” value was 26.7%. Under “day 5, after 8 μM CHIR99021, intermediate mesoderm stage”, the “cells expressing PAX8 (flow cytometry)” value was 95.9%.
